Experimental data: patent US20240116985A1, “STAPLED PEPTIDES AND METHODS THEREOF” (priority 2020, published 2024)

Target: T1, full-length beta-Catenin (Uniprot ID P35222) (Homo sapiens, UniProt P35222)
T1 construct: 10 nM full-length beta-Catenin (Uniprot ID P35222)
T1 sequence (P35222 1-781): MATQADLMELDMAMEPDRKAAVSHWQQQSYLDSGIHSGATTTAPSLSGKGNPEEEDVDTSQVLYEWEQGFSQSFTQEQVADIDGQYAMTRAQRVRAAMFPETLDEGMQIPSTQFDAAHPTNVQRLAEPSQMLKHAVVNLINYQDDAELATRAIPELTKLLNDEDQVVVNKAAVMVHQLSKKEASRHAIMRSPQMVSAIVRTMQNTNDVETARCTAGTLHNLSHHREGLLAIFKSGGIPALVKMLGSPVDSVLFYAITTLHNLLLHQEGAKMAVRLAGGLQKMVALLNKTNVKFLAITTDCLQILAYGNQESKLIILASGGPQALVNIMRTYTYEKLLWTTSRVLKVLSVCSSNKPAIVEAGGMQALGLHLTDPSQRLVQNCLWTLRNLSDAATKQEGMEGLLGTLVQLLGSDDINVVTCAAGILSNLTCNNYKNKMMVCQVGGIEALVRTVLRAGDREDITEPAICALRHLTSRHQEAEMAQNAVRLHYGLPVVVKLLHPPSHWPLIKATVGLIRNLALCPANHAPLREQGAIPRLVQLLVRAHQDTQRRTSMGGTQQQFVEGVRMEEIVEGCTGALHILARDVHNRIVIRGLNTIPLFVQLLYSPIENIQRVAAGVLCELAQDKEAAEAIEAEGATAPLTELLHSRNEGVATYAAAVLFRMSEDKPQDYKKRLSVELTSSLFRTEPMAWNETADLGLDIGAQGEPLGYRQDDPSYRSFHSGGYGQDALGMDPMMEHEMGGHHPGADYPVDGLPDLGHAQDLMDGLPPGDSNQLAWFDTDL
Assay: Fluorescence polarization IC50 (beta-catenin / 5FAM-TCF4 10-53 competition)
Assay type: binding
Details: fluorescence polarization; read-out: beta-Catenin FP IC50

SMILES	IC50 [nM]
CC(=O)N1CCC[C@]12CC=CCCCC1(CCCC=CCCCOC(=O)N3CC[C@@](C(=O)N[C@@H](Cc4ccsc4)C(=O)N[C@@H](Cc4csc5ccccc45)C(=O)N[C@@H](CCC(N)=O)C(N)=O)(C3)NC(=O)[C@H](CC(N)=O)NC(=O)[C@H](Cc3cccc(C(F)(F)F)c3)NC(=O)[C@H](C)NC(=O)[C@H](C)NC(=O)[C@H]([C@@H](C)O)NC(=O)[C@H](CC(N)=O)NC1=O)NC(=O)[C@H](CC(C)(C)C)NC(=O)[C@H](CC(=O)O)NC2=O (stereo partly drawn) [I-2010, Ac-PL3-Asp-Npg-B5-Asn-Thr-Ala-Ala-3F3MeF-Asn-PyrS2-3Thi-BztA-Gln-NH2]	1970
CC(=O)N1CCC[C@]12CC=CCCCC1(CCCC=CCCCOC(=O)N3CC[C@@](C(=O)N[C@@H](Cc4ccsc4)C(=O)N[C@@H](Cc4csc5ccccc45)C(=O)N[C@@H](CC(C)C)C(N)=O)(C3)NC(=O)[C@H](CC(N)=O)NC(=O)[C@H](Cc3ccccc3)NC(=O)[C@H](C)NC(=O)[C@H](C)NC(=O)[C@H]([C@@H](C)O)NC(=O)[C@H](CC(N)=O)NC1=O)NC(=O)[C@H](CC(C)(C)C)NC(=O)[C@H](CC(=O)O)NC2=O (stereo partly drawn) [I-1880, Ac-PL3-Asp-Npg-B5-Asn-Thr-Ala-Ala-Phe-Asn-PyrS2-3Thi-BztA-Leu-NH2]	868
CC(=O)N1CCC[C@]12CC=CCCCC1(CCCC=CCCCOC(=O)N3CC[C@@](C(=O)N[C@@H](Cc4ccccc4)C(=O)N[C@@H](Cc4csc5ccccc45)C(=O)N[C@@H](CCC(N)=O)C(N)=O)(C3)NC(=O)[C@H](CC(C)C)NC(=O)[C@H](Cc3ccccc3)NC(=O)[C@H](C)NC(=O)[C@H](CCCCNC(C)C)NC(=O)[C@H](CCCCN)NC(=O)[C@H](CC(=O)O)NC1=O)NC(=O)[C@H](CC1CCCCC1)NC(=O)[C@H](CC(N)=O)NC2=O (stereo partly drawn) [I-2347, Ac-PL3-Asn-Cha-B5-Asp-Lys-iPrLys-Ala-Phe-Leu-PyrS2-Phe-BztA-Gln-NH2]	5630
CC(=O)N1CCC[C@]12CCCCCC[C@@](C)(C(=O)N[C@@H](CC(=O)O)C(=O)N[C@@H](CC(=O)O)C(=O)N[C@@H](C)C(=O)N[C@@H](C)C(=O)N[C@@H](Cc1ccccc1)C(=O)N[C@@H](CC(C)C)C(=O)NC(C)(C)C(=O)N[C@@H](Cc1ccsc1)C(=O)N[C@@H](Cc1csc3ccccc13)C(=O)N[C@@H](CCC(N)=O)C(N)=O)NC(=O)[C@H](CC(C)(C)C)NC(=O)[C@H](CC(=O)O)NC2=O [I-1809, Ac-PL3-Asp-Npg-S5-Asp-Asp-Ala-Ala-Phe-Leu-Aib-3Thi-BztA-Gln-NH2]	1950
CC(=O)N1CCC[C@]12CC=CCCCC1(CCCC=CCCCOC(=O)N3CC[C@@](C(=O)N[C@@H](Cc4ccccc4)C(=O)N[C@@H](Cc4csc5ccccc45)C(=O)N[C@@H](CCC(N)=O)C(N)=O)(C3)NC(=O)[C@H](Cc3c[nH]cn3)NC(=O)[C@H](Cc3ccccc3)NC(=O)[C@H](C)NC(=O)[C@H](C)NC(=O)[C@H](CCC(N)=O)NC(=O)[C@H](CC(=O)O)NC1=O)NC(=O)[C@H](CC(C)(C)C)NC(=O)[C@H](CCO)NC2=O (stereo partly drawn) [I-2439, Ac-PL3-Hse-Npg-B5-Asp-Gln-Ala-Ala-Phe-His-PyrS2-Phe-BztA-Gln-NH2]	2760

Results, then the molecule that gave them:

IC50 [nM]	SMILES
722	CC(=O)N1CCC[C@]12CC=CCCCC1(CCCC=CCCCCCC[C@@](C)(C(=O)N[C@@H](Cc3ccsc3)C(=O)N[C@@H](Cc3csc4ccccc34)C(=O)N[C@@H](CCC(N)=O)C(N)=O)NC(=O)[C@H](CC(N)=O)NC(=O)[C@H](Cc3ccccc3)NC(=O)[C@H](C)NC(=O)[C@H](C)NC(=O)[C@H](CC(=O)O)NC(=O)[C@H](CC(=O)O)NC1=O)NC(=O)[C@H](CC(C)(C)C)NC(=O)[C@H](CC(=O)O)N(C)C2=O (stereo partly drawn) [I-1165, Ac-PL3-NMeD-Npg-B5-Asp-Asp-Ala-Ala-Phe-Asn-S8-3Thi-BztA-Gln-NH2]
656	CC(=O)N1CCC[C@]12CC=CCCCC1(CCCC=CCCCOC(=O)N3CC[C@@](C(=O)N[C@@H](Cc4ccsc4)C(=O)N[C@@H](Cc4csc5ccccc45)C(=O)N[C@@H](C)C(N)=O)(C3)NC(=O)[C@H]([C@@H](C)O)NC(=O)[C@H](Cc3ccccc3)NC(=O)[C@H](C)NC(=O)[C@H](C)NC(=O)[C@H]([C@@H](C)O)NC(=O)[C@H](CC(N)=O)NC1=O)NC(=O)[C@H](CC(C)(C)C)NC(=O)[C@H](CC(=O)O)NC2=O (stereo partly drawn) [I-2334, Ac-PL3-Asp-Npg-B5-Asn-Thr-Ala-Ala-Phe-Thr-PyrS2-3Thi-BztA-Ala-NH2]
424	CC(=O)N1CCC[C@]12CC=CCCCC1(CCCC=CCCCOC(=O)N3CC[C@@](C(=O)N[C@@H](Cc4ccccc4C(F)(F)F)C(=O)N[C@@H](Cc4csc5ccccc45)C(=O)N[C@H](C)C(N)=O)(C3)NC(=O)[C@H](CC(C)C)NC(=O)[C@H](Cc3ccccc3)NC(=O)[C@@H](C)NC(=O)[C@H](C)NC(=O)[C@H](Cc3cccc(C(=O)O)c3)NC(=O)[C@H](CC(=O)O)NC1=O)NC(=O)[C@H](CC(C)(C)C)NC(=O)[C@H](CC(=O)O)NC2=O (stereo partly drawn) [I-2101, Ac-PL3-Asp-Npg-B5-Asp-3COOHF-Ala-dAla-Phe-Leu-PyrS2-2F3MeF-BztA-dAla-NH2]
325	CC(=O)N1CCC[C@]12CC=CCCCC1(CCCC=CCCCOC(=O)N3CC[C@@](C(=O)N[C@@H](Cc4ccccc4C(F)(F)F)C(=O)N[C@@H](Cc4csc5ccccc45)C(=O)N[C@@H](C)C(N)=O)(C3)NC(=O)[C@H](CC(C)C)NC(=O)[C@H](Cc3ccccc3)NC(=O)[C@@H](C)NC(=O)[C@H](C)NC(=O)[C@H](Cc3cccc(C(=O)O)c3)NC(=O)[C@H](CC(=O)O)NC1=O)NC(=O)[C@H](CC(C)(C)C)NC(=O)[C@H](CC(=O)O)NC2=O (stereo partly drawn) [I-2099, Ac-PL3-Asp-Npg-B5-Asp-3COOHF-Ala-dAla-Phe-Leu-PyrS2-2F3MeF-BztA-Ala-NH2]
224	CC(=O)N1CCC[C@]12CCCCCCC1(CCCCCCCCOC(=O)N3CC[C@@](C(=O)N[C@@H](Cc4ccsc4)C(=O)N[C@@H](Cc4csc5ccccc45)C(=O)N[C@H](C(N)=O)[C@@H](C)O)(C3)NC(=O)[C@H](CC(C)C)NC(=O)[C@H](Cc3ccccc3)NC(=O)[C@H](C)NC(=O)[C@H](C)NC(=O)[C@H](CN(CC(=O)O)CC(F)(F)F)NC(=O)[C@H](CC(=O)O)NC1=O)NC(=O)[C@H](CC(C)(C)C)NC(=O)[C@H](CC(=O)O)NC2=O (stereo partly drawn) [I-1716, Ac-PL3-Asp-Npg-B5-Asp-TfeGA-Ala-Ala-Phe-Leu-PyrS2-3Thi-BztA-Thr-NH2]
181	CC(=O)N1CCC[C@H]1C(=O)N[C@]1(C)CC=CCCCC2(CCCC=CCCCOC(=O)N3CC[C@@](C(=O)N[C@@H](Cc4ccccc4C(F)(F)F)C(=O)N[C@@H](Cc4csc5ccccc45)C(=O)N[C@@H](CCC(N)=O)C(N)=O)(C3)NC(=O)[C@H](CC(C)C)NC(=O)[C@H](Cc3ccccc3)NC(=O)[C@H](C)NC(=O)[C@H](C)NC(=O)[C@H](Cc3cccc(C(=O)O)c3)NC(=O)[C@H](CC(=O)O)NC2=O)NC(=O)[C@H](CC(C)(C)C)NC(=O)[C@H](CC(=O)O)NC1=O (stereo partly drawn) [I-2566, Ac-Pro-R3-Asp-Npg-B5-Asp-3COOHF-Ala-Ala-Phe-Leu-PyrS2-2F3MeF-BztA-Gln-NH2]
105	CC(=O)N1CCC[C@]12CC=CCCCC1(CCCC=CCCCOC(=O)N3CC[C@@](C(=O)N[C@@H](Cc4ccsc4)C(=O)N[C@@H](Cc4csc5ccccc45)C(=O)N[C@@H](CCC(N)=O)C(N)=O)(C3)NC(=O)[C@H](CC(C)C)NC(=O)[C@H](Cc3cccc(C(=O)O)c3)NC(=O)[C@H](C)NC(=O)[C@H](C)NC(=O)[C@H](Cc3c[nH]c4ccccc34)NC(=O)[C@H](CC(=O)O)NC1=O)NC(=O)[C@H](CC(C)(C)C)NC(=O)[C@H](CC(=O)O)NC2=O (stereo partly drawn) [I-2129, Ac-PL3-Asp-Npg-B5-Asp-Trp-Ala-Ala-3COOHF-Leu-PyrS2-3Thi-BztA-Gln-NH2]
102	CC(C)C[C@@H]1NC(=O)[C@H](Cc2ccccc2)NC(=O)[C@H](C)NC(=O)[C@H](C)NC(=O)[C@H](Cc2cccc(C(=O)O)c2)NC(=O)[C@H](CC(=O)O)NC(=O)C2(CCCCCCCCOC(=O)N3CC[C@@](C(=O)N[C@@H](Cc4ccccc4C(F)(F)F)C(=O)N[C@@H](Cc4csc5ccccc45)C(=O)N[C@@H](CCC(N)=O)C(N)=O)(C3)NC1=O)CCCCCC[C@@]13CCCN1C(=O)CCCCC[C@H](NC(=O)[C@H](CC(=O)O)NC3=O)C(=O)N2 (stereo partly drawn) [I-2530, 4pentenyl-PL3-Asp-AllylGly-B5-Asp-3COOHF-Ala-Ala-Phe-Leu-PyrS2-2F3MeF-BztA-Gln-NH2]

Same assay, conditions: read-out: beta-Catenin FP IC50

SMILES	IC50 [nM]
CC(=O)N1CCC[C@]12CC=CCCCC1(CCCC=CCCCOC(=O)N3CC[C@@](C(=O)N[C@@H](Cc4ccsc4)C(=O)N[C@@H](Cc4csc5ccccc45)C(=O)NC(CCCCNC(=O)c4ccc5c(c4)B(O)OC5)C(N)=O)(C3)NC(=O)[C@H](CC(C)C)NC(=O)[C@H](Cc3ccccc3)NC(=O)[C@H](C)NC(=O)[C@H](C)NC(=O)[C@H](CN(CC(=O)O)CC(F)(F)F)NC(=O)[C@H](CC(=O)O)NC1=O)NC(=O)[C@H](CC(C)(C)C)NC(=O)[C@H](CC(=O)O)NC2=O (stereo partly drawn) [I-2186, Ac-PL3-Asp-Npg-B5-Asp-TfeGA-Ala-Ala-Phe-Leu-PyrS2-3Thi-BztA-BnBoroleK-NH2]	459
